How the values were obtained:
[1] = target: T1, Bromodomain-containing protein 4 (Homo sapiens, UniProt O60885); experiment: Displacement of biotinylated ligand from recombinant His-tagged BRD4 bromodomain-1 (unknown origin) measured after 10 mins by TR-FRET assay
[2] = target: T1, Bromodomain-containing protein 4; experiment: Displacement of biotinylated ligand from BRD4 bromodomain-1 (unknown origin) by TR-FRET assay
[3] = target: T2, CREB-binding protein/Histone acetyltransferase p300 (Homo sapiens, UniProt Q09472+Q92793); experiment: Displacement of biotinylated ligand from recombinant His-tagged CBP/EP300 (unknown origin) measured after 10 mins by TR-FRET assay; type: protein assay
[4] = Drug metabolism in human liver microsomes assessed as cleavage of cyclopropylmethyl moiety at 10 uM up to 1 hr in presence of NADPH by LC-MS analysis; type: ADME
[5] = Apparent permeability of the compound across apical side to basolateral side in MDCK cells at 10 uM measured after 180 mins by LC-MS/MS analysis; type: ADME, cell-based, Canis lupus familiaris; conditions: dog
[6] = Drug metabolism in mouse liver microsomes assessed as phenyl ring oxidation at 10 uM up to 1 hr in presence of NADPH by LC-MS analysis; type: ADME
[7] = Drug metabolism in human liver microsomes assessed as phenyl ring oxidation at 10 uM up to 1 hr in presence of NADPH by LC-MS analysis; type: ADME
[8] = Drug metabolism in mouse liver microsomes assessed as cleavage of cyclopropylmethyl moiety at 10 uM up to 1 hr in presence of NADPH by LC-MS analysis; type: ADME
[9] = target: T2, CREB-binding protein/Histone acetyltransferase p300; experiment: Inhibition of Halo-tagged histone H3.3 binding to CBP/EP300 (unknown origin) expressed in HEK293 cells measured after overnight incubation by luciferase reporter gene based BRET assay; type: cell-based
CREB-binding protein [10] = target: T3, CREB-binding protein (Homo sapiens, UniProt Q92793); experiment: Inhibition of Halo-tagged histone H3.3 binding to NanoLuc luciferase conjugated CBP (unknown origin) expressed in HEK293 cells after overnight incubation by BRET assay; type: cell-based
[11] = target: T2, CREB-binding protein/Histone acetyltransferase p300; experiment: Inhibition of CBP/EP300 (unknown origin) assessed as reduction in MYC expression by cell based assay
CREB-binding protein [12] = target: T3, CREB-binding protein; experiment: Displacement of biotinylated ligand from CBP (unknown origin) by TR-FRET assay
[13] = Clearance in mouse; type: ADME, organism-based; conditions: in vivo
[14] = Drug metabolism in CD-1 mouse hepatocytes assessed as glucuronidation of compound at 1 uM up to 180 mins by LC-MS/MS analysis; type: ADME, cell-based, Hepatocyte; conditions: 3 h
[15] = Oral bioavailability in mouse; type: ADME, organism-based; conditions: in vivo

T3 sequence (Q92793 whole entry): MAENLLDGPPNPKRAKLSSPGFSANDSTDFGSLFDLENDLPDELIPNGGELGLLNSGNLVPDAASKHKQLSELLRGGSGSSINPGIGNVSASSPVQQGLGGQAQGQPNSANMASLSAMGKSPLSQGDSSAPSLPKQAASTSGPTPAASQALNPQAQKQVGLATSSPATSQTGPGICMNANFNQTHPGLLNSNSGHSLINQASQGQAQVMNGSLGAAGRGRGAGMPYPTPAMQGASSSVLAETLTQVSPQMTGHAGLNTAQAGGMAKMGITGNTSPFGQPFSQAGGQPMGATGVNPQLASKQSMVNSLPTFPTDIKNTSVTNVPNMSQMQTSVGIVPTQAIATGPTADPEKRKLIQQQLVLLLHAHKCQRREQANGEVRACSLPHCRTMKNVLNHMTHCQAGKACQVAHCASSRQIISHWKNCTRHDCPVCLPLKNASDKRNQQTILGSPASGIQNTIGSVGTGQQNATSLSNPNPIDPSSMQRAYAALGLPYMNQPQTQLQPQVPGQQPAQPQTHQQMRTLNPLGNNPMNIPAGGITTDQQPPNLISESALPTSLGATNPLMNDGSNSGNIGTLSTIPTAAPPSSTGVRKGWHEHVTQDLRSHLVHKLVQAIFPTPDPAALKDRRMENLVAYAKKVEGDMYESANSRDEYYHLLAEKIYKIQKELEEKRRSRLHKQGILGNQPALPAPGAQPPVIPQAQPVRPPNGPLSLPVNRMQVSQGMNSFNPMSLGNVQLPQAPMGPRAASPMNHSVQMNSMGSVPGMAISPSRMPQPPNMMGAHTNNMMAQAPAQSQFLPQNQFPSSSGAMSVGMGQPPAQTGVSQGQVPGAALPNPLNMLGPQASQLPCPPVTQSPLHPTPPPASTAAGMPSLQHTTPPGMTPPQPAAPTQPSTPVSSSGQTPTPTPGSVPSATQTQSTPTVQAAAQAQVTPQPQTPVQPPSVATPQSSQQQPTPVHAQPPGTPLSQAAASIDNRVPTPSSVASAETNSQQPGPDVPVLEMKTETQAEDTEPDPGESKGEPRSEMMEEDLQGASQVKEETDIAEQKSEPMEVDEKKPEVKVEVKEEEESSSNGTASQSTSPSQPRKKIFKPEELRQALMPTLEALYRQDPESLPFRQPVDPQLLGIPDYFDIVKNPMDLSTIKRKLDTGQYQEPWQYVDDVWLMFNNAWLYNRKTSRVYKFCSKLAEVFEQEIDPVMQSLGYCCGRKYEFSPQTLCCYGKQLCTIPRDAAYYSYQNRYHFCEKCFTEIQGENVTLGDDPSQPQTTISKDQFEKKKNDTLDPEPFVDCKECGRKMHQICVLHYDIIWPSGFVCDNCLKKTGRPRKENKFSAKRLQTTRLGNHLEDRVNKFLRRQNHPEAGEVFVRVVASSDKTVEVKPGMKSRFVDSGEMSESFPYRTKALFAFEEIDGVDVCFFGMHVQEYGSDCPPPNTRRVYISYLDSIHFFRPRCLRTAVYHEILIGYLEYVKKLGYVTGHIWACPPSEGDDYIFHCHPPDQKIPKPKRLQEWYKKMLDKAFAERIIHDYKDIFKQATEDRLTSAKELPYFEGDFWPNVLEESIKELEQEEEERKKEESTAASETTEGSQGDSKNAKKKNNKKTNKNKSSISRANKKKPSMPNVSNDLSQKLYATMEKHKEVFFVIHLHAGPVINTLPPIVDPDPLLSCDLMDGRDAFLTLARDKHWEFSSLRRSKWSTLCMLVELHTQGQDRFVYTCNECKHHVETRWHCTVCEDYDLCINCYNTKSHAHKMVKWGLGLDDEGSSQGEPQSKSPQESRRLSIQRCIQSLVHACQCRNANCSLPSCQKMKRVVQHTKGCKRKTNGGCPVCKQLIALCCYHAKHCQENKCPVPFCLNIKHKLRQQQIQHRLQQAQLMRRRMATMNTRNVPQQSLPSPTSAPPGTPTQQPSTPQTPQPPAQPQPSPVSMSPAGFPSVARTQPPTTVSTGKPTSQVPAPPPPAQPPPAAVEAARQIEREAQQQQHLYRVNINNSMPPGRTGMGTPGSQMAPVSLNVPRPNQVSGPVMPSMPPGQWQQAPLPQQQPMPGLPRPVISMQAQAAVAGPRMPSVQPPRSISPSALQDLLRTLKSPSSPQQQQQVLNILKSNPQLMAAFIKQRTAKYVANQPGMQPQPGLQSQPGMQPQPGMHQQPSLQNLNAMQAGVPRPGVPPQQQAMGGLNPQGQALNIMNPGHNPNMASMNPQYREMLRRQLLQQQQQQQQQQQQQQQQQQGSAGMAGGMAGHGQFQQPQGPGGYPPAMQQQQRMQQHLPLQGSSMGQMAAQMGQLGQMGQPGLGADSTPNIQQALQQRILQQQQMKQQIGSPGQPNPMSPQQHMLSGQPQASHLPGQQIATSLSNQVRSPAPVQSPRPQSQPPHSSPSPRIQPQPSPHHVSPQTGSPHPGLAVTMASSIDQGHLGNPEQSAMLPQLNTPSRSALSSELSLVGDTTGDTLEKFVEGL

Row | Compound | IC50 [1] [µM] | IC50 [3] [µM] | further results
1 | CC(=O)N1CCc2c(c(Nc3cccc(C)c3)nn2Cc2ccncc2)C1 | 5.9 |  | 
2 | COc1ccc(CCc2nc3cc(-c4c(C)noc4C)ccc3n2C[C@H](C)N2CCOCC2)cc1Cl |  |  | IC50 [2]: 3.2 µM
3 | CCCn1nc(Nc2cccc(C)c2)c2c1CCN(C(C)=O)C2 | 14 | 0.07 | 
4 | CC(=O)N1CCc2c(c(Nc3cccc(C)c3)nn2C)C1 | > 20 |  | 
5 | COCCn1nc(Nc2cccc(C)c2)c2c1CCN(C(C)=O)C2 | > 20 |  | 
6 | COC(=O)c1cccc(Nc2n[nH]c3c2CN(C(C)=O)CC3)c1 | 18 | 0.11 | 
7 | CC(=O)N1CCc2c(c(Nc3cccc(C)c3)nn2Cc2ccccn2)C1 | 7.3 |  | 
8 | CCc1ccc(Nc2n[nH]c3c2CN(C(C)=O)CC3)cc1 | > 20 | 0.25 | 
9 | CC(=O)N1CCc2c(c(Nc3cccc(-c4cnn(C)c4)c3)nn2CC2CC2)C1 | 4.2 |  | Drug metabolism [4]: Metabolite_Detected; Papp A→B at 3 h, 10 µM [5]: 18 ×10⁻⁶ cm/s; Drug metabolism [6]: Metabolite_Detected; Drug metabolism [7]: Metabolite_Detected; Drug metabolism [8]: Metabolite_Detected
10 | CC(=O)N1CCc2c(c(Nc3cccc(-c4ccnn4C)c3)nn2CC2CC2)C1 | 3.7 |  | Papp A→B at 3 h, 10 µM [5]: 15 ×10⁻⁶ cm/s
11 | CC(=O)N1CCc2c(c(Nc3cccc(C)c3)nn2CC2CC2)C1 | 13 |  | 
12 | CC(=O)N1CCc2c(c(Nc3cccc(-c4ccccn4)c3)nn2CC2CC2)C1 |  | 0.03 | IC50 [9]: 0.56 µM; Papp A→B at 3 h, 10 µM [5]: 15 ×10⁻⁶ cm/s
13 | CC(=O)N1CCc2[nH]nc(Nc3ccc(C)cc3)c2C1 | > 20 | 0.3 | 
14 | CCC(=O)N1CCOc2c(cc(-c3ccc(OC)c(OC)c3)cc2OC[C@H]2CCCN(C)C2)C1 |  |  | IC50 (CREB-binding protein [10]): > 10 µM; EC50 [11]: > 10 µM; IC50 (CREB-binding protein [12]): 0.44 µM
15 | CC(=O)N1CCc2c(c(Nc3cccc(-c4ccncc4)c3)nn2CC2CC2)C1 | 0.87 |  | Papp A→B at 3 h, 10 µM [5]: 20 ×10⁻⁶ cm/s
16 | CC(=O)N1CCc2c(c(Nc3cccc(-c4ccccc4)c3)nn2CC2CC2)C1 | 4.6 |  | IC50 [9]: 2.5 µM; Papp A→B at 3 h, 10 µM [5]: 26 ×10⁻⁶ cm/s
17 | CC(=O)N1CCc2[nH]nc(Nc3ccccc3F)c2C1 | > 20 | 1.4 | 
18 | CC(=O)N1CCc2c(c(Nc3cccc(-c4cnoc4)c3)nn2CC2CC2)C1 | 8.6 |  | 
19 | CCCC(=O)N1CCc2[nH]nc(Nc3cccc(C)c3)c2C1 | > 20 | > 5 | 
20 | CC(=O)N1CCc2[nH]nc(Nc3cccc(C(F)(F)F)c3)c2C1 | 18 | 0.1 | 
21 | CC(=O)N1CCc2c(c(Nc3cccc(-c4cn[nH]c4)c3)nn2CC2CC2)C1 | 4.6 |  | Papp A→B at 3 h, 10 µM [5]: 7.3 ×10⁻⁶ cm/s
22 | CCCNC(=O)c1cccc(Nc2nn(CC3CC3)c3c2CN(C(C)=O)CC3)c1 | 5.8 | 0.03 | IC50 [9]: 1.3 µM
23 | CC(=O)N1CCc2c(c(Nc3ccc(-c4cnn(C)c4)cc3)nn2C2CCOC2)C1 (single isomer, unassigned; 57) | 8.5 |  | 
24 | Cc1cccc(Nc2n[nH]c3c2CN(S(C)(=O)=O)CC3)c1 | > 20 | > 5 | 

Row | Compound | IC50 [1] [µM] | IC50 [3] [µM] | further results
25 | CCc1cccc(Nc2n[nH]c3c2CN(C(C)=O)CC3)c1 | > 20 | 0.19 | 
26 | COC(=O)c1ccc(Nc2n[nH]c3c2CN(C(C)=O)CC3)cc1 | > 20 | 0.14 | 
27 | Cc1cccc(Nc2n[nH]c3c2CN(C(=O)C(F)(F)F)CC3)c1 | > 20 | 4.3 | 
28 | CC(=O)N1CCc2[nH]nc(Nc3cccc(F)c3)c2C1 | > 20 | 0.43 | 
29 | CC(=O)N1CCc2c(c(Nc3cccc(-c4ccn[nH]4)c3)nn2CC2CC2)C1 | 3.8 |  | Papp A→B at 3 h, 10 µM [5]: 6.3 ×10⁻⁶ cm/s
30 | COCCNC(=O)c1cccc(Nc2nn(CC3CC3)c3c2CN(C(C)=O)CC3)c1 | > 20 |  | 
31 | CC(=O)N1CCc2c(c(Nc3cccc(C)c3)nn2CCC2CC2)C1 | 9.8 | 0.18 | 
32 | CCNC(=O)c1cccc(Nc2nn(CC3CC3)c3c2CN(C(C)=O)CC3)c1 | 7.7 | 0.04 | IC50 [9]: 1.5 µM
33 | CCC(=O)N1CCc2[nH]nc(Nc3cccc(C)c3)c2C1 | > 20 | 1.4 | 
34 | CC(=O)N1CCc2[nH]nc(Nc3ccccc3C)c2C1 | > 20 | 1.2 | 
35 | CC(=O)N1CCc2c(c(Nc3cccc(C)c3)nn2CCO)C1 | > 20 |  | 
36 | CC(=O)N1CCc2c(c(Nc3ccc(-c4cnn(C)c4)cc3)nn2CC2CC2)C1 | 6.4 |  | clearance [13]: 118 mL/min/kg; Drug metabolism [14]: Metabolite_Detected
37 | CC(=O)N1CCc2c(c(Nc3ccc(-c4cnn(C)c4)cc3)nn2C2CCOC2)C1 (single isomer, unassigned; 58) | 11 |  | 
38 | CCCOc1ccc(CCc2nc3cc(-c4c(C)noc4C)ccc3n2CCN2CCOCC2)cc1 |  |  | IC50 (CREB-binding protein [10]): > 10 µM; IC50 [2]: 2.9 µM; EC50 [11]: 6.6 µM; IC50 (CREB-binding protein [12]): 0.19 µM
39 | CC(=O)N1CCc2c(c(Nc3cccc(-c4cccnc4)c3)nn2CC2CC2)C1 | 4 |  | Papp A→B at 3 h, 10 µM [5]: 24 ×10⁻⁶ cm/s
40 | CC(=O)N1CCc2[nH]nc(Nc3cccc(C)c3)c2C1 | > 20 | 0.34 | 
41 | CC(=O)N1CCc2c(c(Nc3cccc(C(=O)NC(C)C)c3)nn2CC2CC2)C1 |  | 0.03 | IC50 [9]: 0.96 µM; Papp A→B at 3 h, 10 µM [5]: 2.4 ×10⁻⁶ cm/s; clearance [13]: 43 mL/min/kg; bioavailability [15]: 5%
42 | CC(=O)N1CCc2[nH]nc(Nc3cccc(OC(F)F)c3)c2C1 | > 20 | 0.16 | 
43 | CC(=O)N1CCc2[nH]nc(Nc3ccc(F)cc3)c2C1 | > 20 | 0.91 | 
44 | COc1cccc(Nc2n[nH]c3c2CN(C(C)=O)CC3)c1 | > 20 | 0.34 | 
45 | Cc1cccc(Nc2n[nH]c3c2CN(C(=O)C2CC2)CC3)c1 | > 20 | 4.1 | 
46 | CC(=O)N1CCc2c(c(Nc3cccc(C)c3)nn2Cc2cccnc2)C1 | 5.6 |  | 
47 | CC(=O)N1CCc2c(c(Nc3ccc(-c4cnn(C)c4)cc3)nn2C2COC2)C1 | 11 | 0.04 | IC50 [9]: 1.2 µM

Source: ChEMBL document CHEMBL3864133, “Discovery of a Potent and Selective in Vivo Probe (GNE-272) for the Bromodomains of CBP/EP300” (J Med Chem, 2016)
